We go through seven compounds from ChEMBL document CHEMBL5360636, “Hyperelatolides A-D, Antineuroinflammatory Constituents with Unusual Carbon Skeletons from Hypericum elatoides” (J Nat Prod, 2023).

One may read the IC50 as the concentration that gives 50% inhibition.

The subject of series [1] is BV-2. Briefly: Antineuroinflammatory activity in LPS-induced mouse BV-2 cells assessed as inhibition of NO production by griess assay. The format is functional, cell-based. For orientation: Griess reagent forms a coloured azo dye with nitrite.
In series [2] the test system is BV-2. The series is described as follows: Antineuroinflammatory activity in LPS-induced mouse BV-2 cells assessed as reduction in nuclear NF-kappaB protein expression by Western blot analysis. The following applies: dose 2.5-10 µM. It counts as functional, cell-based.
Series [3] concerns BV-2. Briefly: Antineuroinflammatory activity in LPS-induced mouse BV-2 cells assessed as downregulation of iNOS protein expression by Western blot analysis. The format is functional, cell-based. To be noted: dose 2.5-10 µM. Background: A western blot detects proteins with antibodies after separation by electrophoresis.
Series [4] concerns BV-2. The series is described as follows: Cytotoxicity against mouse BV-2 cells at 20 uM by MTT assay. It counts as toxicity, cell-based. The following applies: bv-2, 20 µM. (Formazan colour is commonly taken as a measure of viable cells.)
The test system of series [5] is BV-2. Briefly: Antineuroinflammatory activity in LPS-induced mouse BV-2 cells assessed as downregulation of COX-2 protein expression by Western blot analysis. The format is functional, cell-based. The following applies: dose 2.5-10 µM.
Series [6] relates to BV-2. The series is described as follows: Antineuroinflammatory activity in LPS-induced mouse BV-2 cells assessed as reduction in cytoplasmic NF-kappaB protein expression by Western blot analysis. It counts as functional, cell-based. To be noted: dose 2.5-10 µM.

Regarding `O=c1c(O)c(-c2ccc(O)c(O)c2)oc2cc(O)cc(O)c12` [QUERCETIN], the IC50 in series [1] was 7.41 µM.
Same read-out and setting: under `C[C@@H]1C[C@H]2[C@@H]3CCC4=CC(=O)C=C[C@]4(C)[C@@]3(F)[C@@H](O)C[C@]2(C)[C@@]1(O)C(=O)CO` [DEXAMETHASONE] stands 2.83 µM.
For the compound `CC(=O)C[C@@H]1CCC(C)(C)C/C1=C/[C@H]1CC(=O)OC(C)(C)[C@H]1OC(=O)c1ccccc1`, the Activity result in series [2] was “Dose-Dependent Effect”; in series [3], “Dose-Dependent Effect”; in series [4] it was “Non-Toxic”; in series [5], “Dose-Dependent Effect”; in series [6] it was “Dose-Dependent Effect”. The IC50 in series [1] was determined as 5.74 µM.
In the case of `COc1ccc2c(c1)c(CC(=O)O)c(C)n2C(=O)c1ccc(Cl)cc1` [INDOMETHACIN], the IC50 in series [1] was found to be 19.5 µM.
As to `CC(=O)C[C@@H]1CCC(C)(C)C/C1=C/[C@H]1CC(=O)O[C@H]1C(C)(C)OC(=O)c1ccccc1`, the Activity entry in series [4] is listed as “Non-Toxic”. The IC50 in series [1] was determined as 14.9 µM.
On to `CC(=O)C[C@@H]1CCC(C)(C)C/C1=C/C1=CC(C)(C)OC1=O`, for which the Activity entry in series [4] is “Non-Toxic”. Moreover, the half-inhibitory concentration (IC50) in series [1] is > 20 µM.
The corresponding values for `CC(=O)C[C@@H]1CCC(C)(C)C/C1=C/[C@H]1CC(=O)OC(C)(C)[C@@H]1OC(=O)c1ccccc1` are “Non-Toxic” and 7.35 µM.
